From patent US5045533A, “Retinoic esters of antibiotics and pharmaceutical and cosmetic compositions containing them” (L'Oreal, priority 1986, dated 1991)
≈ marks a conversion by molar mass, not a printed value. Like-named read-outs stand apart in the source and are kept apart here.

Tests used:
Staph. Epi. 6 = assay: MIC, Staph. Epi. 6 strain; assay type: cell-based; details: Staphylococcus epidermidis; strain isolated from a non-acne patient; read-out: minimal inhibitory concentrations, Staph. Epi. 6
Description: (§1) The activity of retinoic esters of antibiotics namely of erythromycin A, lincomycin and clindamycin has been studied by the dilution method, so as to determine, the minimal inhibitory concentration (MIC), this method being described and employed by G. A. Denys et al, "Antimicrobial Agents and Chemotherapy" 1983) 23, 335-337 and J. J. Leyden et al, J. Am. Acad. Dermatol. (1983), 8, (1) 41-5, by using as the strain of propionibacterium acnes, the P37 strain furnished by Cunliffe and Holland.
(§2) The "Staph. Epi. 3" strain is isolated from an acne patient whereas the "Staph. Epi. 6" strain is isolated from a non-acne patient. The isolation of these strains is carried out in accordance with the Williamson-Kligman method, ("A new method for the quantitative investigation of cutaneous bacteria", P. Williamson and A. Kligman, J. I. D., Vol. 45, No. 6, 1965). Decimal dilutions of the retained portions are effected and 0.1 ml of these dilutions is inoculated on a selective medium permitting isolation of staphylococcus.

P37 E⊖ (resistant) = assay: MIC by dilution method, P37 E⊖ (resistant) strain; assay type: cell-based, propionibacterium acnes; details: for MIC: Cutibacterium acnes; for activity on resistant strains relative to the esters of the invention: P37 E⊖
Description: as §1
(§3) (1) at the interior of the zone of inhibition strains called P37 E⊖ are retained because of their apparent resistance to erythromycin;
(§4) After isolation and culture, the P37 E⊕ and P37 E⊖ strains effectively show very different sensitivities to erythromycin as is illustrated by the following respective MIC values:
(§5) The Minimal Inhibitory Concentration (MIC) expressed in μg/ml of the tested retinoic esters of erythromycin A, lincomycin and clindamycin vis-a-vis the P37⊕ and P37⊖ strains is reported in the following tables

P37 E⊕ (sensitive) = assay: MIC by dilution method, P37 E⊕ (sensitive) strain; assay type: cell-based, propionibacterium acnes; details: for MIC: Cutibacterium acnes; for activity on sensitive strains relative to the esters of the invention: P37 E⊕
Description: as §1
(§6) (2) at 1 cm beyond the periphery of the zone of inhibition strains called P37 E⊕ are retained.
as §4, §5

Staph. Epi. 3 = assay: MIC, Staph. Epi. 3 strain; assay type: cell-based; details: Staphylococcus epidermidis; strain isolated from an acne patient; read-out: minimal inhibitory concentrations, Staph. Epi. 3
Description: as §1, §2

P37 strain = assay: zone of inhibition of growth around disk in Petri dish; assay type: cell-based, propionibacterium acnes; details: Cutibacterium acnes, 144 h; 50 μg erythromycin in DMSO on 9 mm disk; 6 days at 36° C., anaerobic; after 8 sub-cultures; read-out: zone of inhibition of the growth of the strain, total diameter
Description: On the other hand, after 8 successive sub-cultures in the same medium (RCM, Reinforced Clostridium Medium (oxoid) 19/20, DMSO […] by volume) so as to obtain a progressive stabilization of the strain to this medium, a progressive resistance to erythromycin is manifested in the following form.
After exposure of a standardized inoculum (DO=1.8 to […]) on gelose medium (RCM+ furazolidone) in a Petri dish, a 9 mm diameter disk is deposited at its center. On this disk, 50 μg of erythromycin (in solution in DMSO) are deposited.

P37 E⊖ = assay: IC 50 (Inhibitory Concentration at 50%), P37 E⊖; assay type: cell-based, propionibacterium acnes; details: Cutibacterium acnes
Description: as §3
(§7) This phenomeon is confirmed by the study of the IC 50 (Inhibitory Concentration at 50%) which represents the concentration of erythromycin where, at a constant culture time, 50% of survivors among the population are found.

P37 E⊕ = assay: IC 50 (Inhibitory Concentration at 50%), P37 E⊕; assay type: cell-based, propionibacterium acnes; details: Cutibacterium acnes, constant culture time, 50% of survivors
Description: as §6, §7

P37 = assay: IC 50 (Inhibitory Concentration at 50%), P37; assay type: cell-based, propionibacterium acnes; details: Cutibacterium acnes, constant culture time, 50% of survivors
Description: as §7

[1] = read-out: Minimal Inhibitory Concentration (MIC), P37 E⊖ (resistant)
[2] = sensitive strain, retinoic ester table, read-out: Minimal Inhibitory Concentration (MIC), P37 E⊕ (sensitive)

Structure (SMILES) | MIC (Staph. Epi. 6) | MIC (P37 E⊖ (resistant); [1]) | MIC (P37 E⊕ (sensitive); [2]) | MIC (Staph. Epi. 3) | other results
CCC[C@@H]1C[C@@H](C(=O)N[C@@H]([C@H]2O[C@H](SC)[C@H](O)[C@@H](O)[C@H]2O)[C@H](C)Cl)N(C)C1 [Clindamycin] | 8 µg/mL (≈ 18.8 µM) | 10 µg/mL (≈ 23.5 µM) | 1 µg/mL (≈ 2.35 µM) | 7 µg/mL (≈ 16.5 µM) | –
CC[C@H]1OC(=O)[C@H](C)[C@@H](O[C@H]2C[C@@](C)(OC)[C@@H](O)[C@H](C)O2)[C@H](C)[C@@H](O[C@@H]2O[C@H](C)C[C@H](N(C)C)[C@H]2O)[C@](C)(O)C[C@@H](C)C(=O)[C@H](C)[C@@H](O)[C@]1(C)O [Erythromycin A] | 30 µg/mL (≈ 40.9 µM) | > 50 µg/mL | 1 µg/mL (≈ 1.36 µM) | 13 µg/mL (≈ 17.7 µM) | zone of inhibition at 50 µg/disc (P37 strain): 42 mm; IC50 (P37 E⊖): 100 µg/mL (≈ 136 µM); IC50 (P37 E⊕): 5 µg/mL (≈ 6.81 µM); MIC (P37 E⊖ (resistant)): 50 µg/mL (≈ 68.1 µM); MIC (P37 E⊕ (sensitive); P37 E⊕ strain, strain characterisation table, read-out: MIC): 0.78 µg/mL (≈ 1.06 µM); IC50 (P37): 50 µg/mL (≈ 68.1 µM)
CCC[C@@H]1C[C@@H](C(=O)N[C@@H]([C@H]2O[C@H](SC)[C@H](O)[C@@H](O)[C@H]2O)[C@@H](C)O)N(C)C1 [Lincomycin] | 20 µg/mL (≈ 49.2 µM) | 66 µg/mL (≈ 162 µM) | 13 µg/mL (≈ 32 µM) | 14 µg/mL (≈ 34.4 µM) | –
CCCCCCCC/C=C\CCCCCCCC(=O)O[C@H]1[C@H](O[C@@H]2[C@@H](C)[C@H](O[C@H]3C[C@@](C)(OC)[C@@H](O)[C@H](C)O3)[C@@H](C)C(=O)O[C@H](CC)[C@@](C)(O)[C@H](O)[C@@H](C)C(=O)[C@H](C)C[C@@]2(C)O)O[C@H](C)C[C@@H]1N(C)C [O-oleoyl-2'-erythromycin A (Z-9)] | – | 100 µg/mL (≈ 100 µM) | 50 µg/mL (≈ 50.1 µM) | – | activity on resistant strains relative to the esters of the invention (P37 E⊖ (resistant)): clearly less active; activity on sensitive strains relative to the esters of the invention (P37 E⊕ (sensitive)): clearly less active
CCCCCCCC/C=C\CCCCCCCC(=O)O[C@H]1[C@@H](O)[C@@H]([C@H](NC(=O)[C@@H]2C[C@@H](CCC)CN2C)[C@H](C)Cl)O[C@H](SC)[C@@H]1O [O-oleoyl-3-clindomycin] | – | > 138 µg/mL | 54 µg/mL (≈ 78.3 µM) | – | activity on resistant strains relative to the esters of the invention (P37 E⊖ (resistant)): clearly less active; activity on sensitive strains relative to the esters of the invention (P37 E⊕ (sensitive)): clearly less active
CCCCCCCC/C=C\CCCCCCCC(=O)O[C@H]1[C@@H](O)[C@@H]([C@H](NC(=O)[C@@H]2C[C@@H](CCC)CN2C)[C@@H](C)O)O[C@H](SC)[C@@H]1O [O-oleoyl-3-lincomycin] | – | 42 µg/mL (≈ 62.6 µM) | 19 µg/mL (≈ 28.3 µM) | – | –
CC[C@H]1OC(=O)[C@H](C)[C@@H](O[C@H]2C[C@@](C)(OC)[C@@H](O)[C@H](C)O2)[C@H](C)[C@@H](O[C@@H]2O[C@H](C)C[C@H](N(C)C)[C@H]2OC(=O)\C=C(C)/C=C/C=C(C)/C=C/C2=C(C)CCCC2(C)C)[C@](C)(O)C[C@@H](C)C(=O)[C@H](C)[C@@H](O)[C@]1(C)O [O-retinoyl (13-cis)-2'-erythromycin A] | 110 µg/mL (≈ 108 µM) | 34 µg/mL (≈ 33.5 µM) | 20 µg/mL (≈ 19.7 µM) | 110 µg/mL (≈ 108 µM) | –
CCC[C@@H]1C[C@@H](C(=O)N[C@@H]([C@H]2O[C@H](SC)[C@H](O)[C@@H](OC(=O)\C=C(C)/C=C/C=C(C)/C=C/C3=C(C)CCCC3(C)C)[C@H]2O)[C@H](C)Cl)N(C)C1 [O-retinoyl (13-cis)-3-clindamycin] | 113 µg/mL (≈ 160 µM) | 35 µg/mL (≈ 49.5 µM) | 1.5 µg/mL (≈ 2.12 µM) | 113 µg/mL (≈ 160 µM) | –
CCC[C@@H]1C[C@@H](C(=O)N[C@@H]([C@H]2O[C@H](SC)[C@H](O)[C@@H](OC(=O)\C=C(C)/C=C/C=C(C)/C=C/C3=C(C)CCCC3(C)C)[C@H]2O)[C@@H](C)O)N(C)C1 [O-retinoyl (13-cis)-3-lincomycin] | 100 µg/mL (≈ 145 µM) | 25 µg/mL (≈ 36.3 µM) | 17.5 µg/mL (≈ 25.4 µM) | 100 µg/mL (≈ 145 µM) | –
CC[C@H]1OC(=O)[C@H](C)[C@@H](O[C@H]2C[C@@](C)(OC)[C@@H](O)[C@H](C)O2)[C@H](C)[C@@H](O[C@@H]2O[C@H](C)C[C@H](N(C)C)[C@H]2OC(=O)/C=C(C)/C=C/C=C(C)/C=C/C2=C(C)CCCC2(C)C)[C@](C)(O)C[C@@H](C)C(=O)[C@H](C)[C@@H](O)[C@]1(C)O [O-retinoyl (all trans)-2'-erythromycin A] | 80 µg/mL (≈ 78.7 µM) | 13 µg/mL (≈ 12.8 µM) | 14 µg/mL (≈ 13.8 µM) | 75 µg/mL (≈ 73.8 µM) | –
CCC[C@@H]1C[C@@H](C(=O)N[C@@H]([C@H]2O[C@H](SC)[C@H](O)[C@@H](OC(=O)/C=C(C)/C=C/C=C(C)/C=C/C3=C(C)CCCC3(C)C)[C@H]2O)[C@H](C)Cl)N(C)C1 [O-retinoyl (all-trans)-3-clindamycin, O-retinoyl (all trans)-3-clindamycin] | – | 50 µg/mL (≈ 70.7 µM) | 18 µg/mL (≈ 25.4 µM) | – | –
